# Assays:
# Nannizzia nana [1] = experiment: checkerboard drug interaction (FICI, MICc); format: cell-based;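 further: simplified diagonal checkerboard screen pairing antifungals with FPPS inhibitors, FICI calculated under the Loewe additivity model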
# Procedure: (§1) Drug interactions between antifungals and FPPS inhibitors were investigated using a simplified checkerboard diagonal screening method ([45]). […] FICIs were determined according to the Loewe additivity model ([17]).
# Pichia kudriavzevii [2] = experiment: checkerboard drug interaction (FICI, MICc); format: cell-based;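 further: antifungal plus FPPS inhibitor interactions tested in a simplified diagonal checkerboard screen, with FICI calculated under the Loewe additivity model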
# Procedure: as §1
# Epidermophyton floccosum = experiment: MIC broth microdilution (CLSI); format: cell-based; settings: Epidermophyon floccosum R-113
# Procedure: (§2) Antifungal susceptibility was determined by broth microdilution according to the CLSI guidelines described in M27-Ed4 ([16]).
# Candida auris [3] = experiment: MIC broth microdilution (CLSI); format: cell-based; settings: Candida auris CDC-0384
# Procedure: as §2
# Trichophyton tonsurans = experiment: MIC broth microdilution (CLSI); settings: Trichophyton tonsurans R-168
# Procedure: as §2
# Aspergillus lentulus = experiment: checkerboard drug interaction (FICI, MICc); format: cell-based;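 further: simplified diagonal checkerboard screen pairing antifungals with FPPS inhibitors, with the interaction index calculated under the Loewe additivity model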
# Procedure: as §1
# Aspergillus felis [4] = experiment: MIC broth microdilution (CLSI); format: cell-based; settings: Aspergillus felis IHE87256683D6
# Procedure: as §2
# Mucor circinelloides = experiment: checkerboard drug interaction (FICI, MICc); format: cell-based;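 further: simplified diagonal checkerboard screen pairing antifungals with FPPS inhibitors, FICI calculated under the Loewe additivity model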
# Procedure: as §1
# Candida tropicalis [5] = experiment: MIC broth microdilution (CLSI); format: cell-based; settings: Candida tropicalis M230640
# Procedure: as §2
# Aspergillus udagawae [6] = experiment: MIC broth microdilution (CLSI); format: cell-based; settings: Aspergillus udagawae 8G81
# Procedure: as §2
# Microsporum canis [7] = experiment: checkerboard drug interaction (FICI, MICc); format: cell-based;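 further: simplified diagonal checkerboard screen pairing antifungals with FPPS inhibitors, FICI calculated under the Loewe additivity model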
# Procedure: as §1
# Candida parapsilosis = experiment: MIC broth microdilution (CLSI); format: cell-based; settings: Candida parapsilosis ATCC 22018
# Procedure: (§3) Antifungal susceptibility was determined by broth microdilution according to the CLSI guidelines described in M27-Ed4 ([16]). […] MFC was determined by back-plating drug-treated cultures from MIC broths onto SDA plates. The MFC was defined as the lowest concentration from which no colonies could be cultured.
# Fusarium oxysporum = experiment: MIC broth microdilution (CLSI); format: cell-based; settings: Fusarium oxysporum 07-200-3012
# Procedure: as §2
# [8] = tested on: Cryptococcus deneoformans; experiment: MIC broth microdilution (CLSI); format: cell-based; settings: Cryptococcus deneoformans JEC21
# Procedure: as §2
# Lomentospora prolificans [9] = experiment: MIC broth microdilution (CLSI); format: cell-based; settings: Lomentospora prolificans 80-16-101-2445
# Procedure: as §2
# Candida auris [10] = experiment: checkerboard drug interaction (FICI, MICc); format: cell-based;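 further: simplified diagonal checkerboard screen pairing antifungals with FPPS inhibitors, with FICI computed under the Loewe additivity model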
# Procedure: as §1
# Paraphyton cookei [11] = experiment: MIC broth microdilution (CLSI); format: cell-based; settings: Paraphyton cookei R-639
# Procedure: as §2
# Rhizopus oryzae = experiment: checkerboard drug interaction (FICI, MICc); format: cell-based;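 further: simplified diagonal checkerboard screen pairing antifungals with FPPS inhibitors, FICI calculated under the Loewe additivity model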
# Procedure: as §1
# Lomentospora prolificans [12] = experiment: checkerboard drug interaction (FICI, MICc)
# Procedure: as §1
# Microsporum canis [13] = experiment: MIC broth microdilution (CLSI); settings: Microsporum canis R-232
# Procedure: as §2
# Candida tropicalis [14] = experiment: checkerboard drug interaction (FICI, MICc); format: cell-based;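 further: simplified diagonal checkerboard screen of antifungal plus FPPS inhibitor combinations, with FICI computed by the Loewe additivity model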
# Procedure: as §1
# Candida dubliniensis [15] = experiment: MIC broth microdilution (CLSI); format: cell-based; settings: Candida dubliniensis M230642
# Procedure: as §2
# Candida dubliniensis [16] = experiment: checkerboard drug interaction (FICI, MICc); format: cell-based
# Procedure: as §1
# Nannizzia gypsea = experiment: checkerboard drug interaction (FICI, MICc);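 further: simplified diagonal checkerboard screen pairing antifungals with FPPS inhibitors, FICI derived using the Loewe additivity model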
# Procedure: as §1
# Cryptococcus tetragattii [17] = experiment: MIC broth microdilution (CLSI); format: cell-based; settings: Cryptococcus tetragattii WM779
# Procedure: as §2
# [18] = tested on: Cryptococcus bacillisporus; experiment: checkerboard drug interaction (FICI, MICc); format: cell-based;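 further: interaction of antifungals with FPPS inhibitors assessed by a simplified diagonal checkerboard screen, with FICI computed under the Loewe additivity model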
# Procedure: as §1
# Fusarium solani = experiment: checkerboard drug interaction (FICI, MICc); format: cell-based;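 further: simplified diagonal checkerboard screen pairing antifungals with FPPS inhibitors, FICI derived under the Loewe additivity model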
# Procedure: as §1
# Aspergillus terreus = experiment: checkerboard drug interaction (FICI, MICc); format: cell-based;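 further: simplified diagonal checkerboard screen pairing antifungals with FPPS inhibitors, FICI derived by the Loewe additivity model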
# Procedure: as §1
# Nannizzia nana [19] = experiment: MIC broth microdilution (CLSI); format: cell-based; settings: Nannizzia nana R-133
# Procedure: as §2
# Aspergillus parafelis = experiment: checkerboard drug interaction (FICI, MICc)
# Procedure: as §1
# Aspergillus felis [20] = experiment: checkerboard drug interaction (FICI, MICc); format: cell-based
# Procedure: as §1
# Paraphyton cookei [21] = experiment: checkerboard drug interaction (FICI, MICc);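 further: simplified diagonal checkerboard screen pairing an antifungal with an FPPS inhibitor, FICI computed under the Loewe additivity model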
# Procedure: as §1
# Cryptococcus tetragattii [22] = experiment: checkerboard drug interaction (FICI, MICc); format: cell-based;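 further: simplified diagonal checkerboard screen pairing antifungals with FPPS inhibitors, with FICI calculated under the Loewe additivity model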
# Procedure: as §1
# Pichia kudriavzevii [23] = experiment: MIC broth microdilution (CLSI); format: cell-based; settings: Pichia kudriavzavii ATCC 6258
# Procedure: as §3
# Aspergillus udagawae [24] = experiment: checkerboard drug interaction (FICI, MICc); format: cell-based;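 further: simplified diagonal checkerboard screen pairing antifungals with FPPS inhibitors, FICI calculated using the Loewe additivity model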
# Procedure: as §1
smiles,measurement,setting,value
"CC(=O)N1CCN(c2ccc(OCC3COC(Cn4ccnc4)(c4ccc(Cl)cc4Cl)O3)cc2)CC1 (centres unmarked) [KET, ketoconazole]",antifungal MICc,Nannizzia nana [1]; in combination with 10-ZOL,0.5
same,antifungal MICc,Nannizzia nana [1]; in combination with ZOL,0.13
same,antifungal MICc,Pichia kudriavzevii [2]; in combination with 10-ZOL,0.25
same,antifungal MICc,Pichia kudriavzevii [2]; in combination with ZOL,0.06
same,MIC / MEC,Epidermophyton floccosum,2 µg/mL
same,MIC / MEC,Candida auris [3],4 µg/mL
same,MIC / MEC,Trichophyton tonsurans,4 µg/mL
same,antifungal MICc,Aspergillus lentulus; in combination with 10-ZOL,4
same,antifungal MICc,Aspergillus lentulus; in combination with ZOL,4
same,MIC / MEC,Aspergillus felis [4],16 µg/mL
same,antifungal MICc,Mucor circinelloides; in combination with 10-ZOL,4
same,antifungal MICc,Mucor circinelloides; in combination with ZOL,8
same,MIC / MEC,Candida tropicalis [5],8 µg/mL
same,MIC / MEC,Aspergillus udagawae [6],8 µg/mL
same,antifungal MICc,Microsporum canis [7]; in combination with 10-ZOL,1
same,antifungal MICc,Microsporum canis [7]; in combination with ZOL,4
same,MIC / MEC,Candida parapsilosis,0.03 µg/mL
same,MIC / MEC,Fusarium oxysporum,16 µg/mL
same,MIC / MEC,[8],0.13 µg/mL
same,MIC / MEC,Lomentospora prolificans [9],4 µg/mL
same,antifungal MICc,Candida auris [10]; in combination with 10-ZOL,1
same,antifungal MICc,Candida auris [10]; in combination with ZOL,1
same,MIC / MEC,Paraphyton cookei [11],8 µg/mL
same,antifungal MICc,Rhizopus oryzae; in combination with 10-ZOL,4
same,antifungal MICc,Rhizopus oryzae; in combination with ZOL,16
same,antifungal MICc,Lomentospora prolificans [12]; in combination with 10-ZOL,0.25
same,antifungal MICc,Lomentospora prolificans [12]; in combination with ZOL,2
same,MIC / MEC,Microsporum canis [13],16 µg/mL
same,antifungal MICc,Candida tropicalis [14]; in combination with 10-ZOL,4
same,antifungal MICc,Candida tropicalis [14]; in combination with ZOL,0.5
same,MIC / MEC,Candida dubliniensis [15],0.02 µg/mL
same,antifungal MICc,Candida dubliniensis [16]; in combination with 10-ZOL,0.006
same,antifungal MICc,Candida dubliniensis [16]; in combination with ZOL,0.005
same,antifungal MICc,Nannizzia gypsea; in combination with 10-ZOL,2
same,antifungal MICc,Nannizzia gypsea; in combination with ZOL,1
same,MIC / MEC,Cryptococcus tetragattii [17],0.5 µg/mL
same,antifungal MICc,[18]; in combination with 10-ZOL,0.125
same,antifungal MICc,[18]; in combination with ZOL,0.25
same,antifungal MICc,Fusarium solani; in combination with 10-ZOL,4
same,antifungal MICc,Fusarium solani; in combination with ZOL,4
same,antifungal MICc,Aspergillus terreus; in combination with 10-ZOL,2
same,antifungal MICc,Aspergillus terreus; in combination with ZOL,0.25
same,MIC / MEC,Nannizzia nana [19],0.5 µg/mL
same,antifungal MICc,Aspergillus parafelis; in combination with 10-ZOL,16
same,antifungal MICc,Aspergillus parafelis; in combination with ZOL,32
same,antifungal MICc,Aspergillus felis [20]; in combination with 10-ZOL,4
same,antifungal MICc,Aspergillus felis [20]; in combination with ZOL,8
same,antifungal MICc,Paraphyton cookei [21]; in combination with 10-ZOL,1
same,antifungal MICc,Paraphyton cookei [21]; in combination with ZOL,4
same,antifungal MICc,Cryptococcus tetragattii [22]; in combination with 10-ZOL,0.125
same,antifungal MICc,Cryptococcus tetragattii [22]; in combination with ZOL,0.25
same,MIC / MEC,Pichia kudriavzevii [23],0.25 µg/mL
same,antifungal MICc,Aspergillus udagawae [24]; in combination with 10-ZOL,0.5
same,antifungal MICc,Aspergillus udagawae [24]; in combination with ZOL,2
C[C@@H](c1ncncc1F)[C@](O)(Cn1cncn1)c1ccc(F)cc1F [VOR],antifungal MICc,Nannizzia nana [1]; in combination with 10-ZOL,0.0625
same,antifungal MICc,Nannizzia nana [1]; in combination with ZOL,0.0625
same,antifungal MICc,Pichia kudriavzevii [2]; in combination with 10-ZOL,0.5
same,antifungal MICc,Pichia kudriavzevii [2]; in combination with ZOL,1
same,MIC / MEC,Epidermophyton floccosum,0.25 µg/mL
same,MIC / MEC,Candida auris [3],2 µg/mL
same,MIC / MEC,Trichophyton tonsurans,0.13 µg/mL
same,antifungal MICc,Aspergillus lentulus; in combination with 10-ZOL,0.5
same,antifungal MICc,Aspergillus lentulus; in combination with ZOL,0.5
same,MIC / MEC,Aspergillus felis [4],2 µg/mL
same,antifungal MICc,Mucor circinelloides; in combination with 10-ZOL,4
same,antifungal MICc,Mucor circinelloides; in combination with ZOL,4
same,MIC / MEC,Candida tropicalis [5],0.13 µg/mL
same,MIC / MEC,Aspergillus udagawae [6],1 µg/mL
same,antifungal MICc,Microsporum canis [7]; in combination with 10-ZOL,0.031
same,antifungal MICc,Microsporum canis [7]; in combination with ZOL,0.015
same,MIC / MEC,Candida parapsilosis,0.13 µg/mL
same,MIC / MEC,Fusarium oxysporum,4 µg/mL
same,MIC / MEC,[8],0.06 µg/mL
same,MIC / MEC,Lomentospora prolificans [9],16 µg/mL
same,antifungal MICc,Candida auris [10]; in combination with 10-ZOL,0.25
same,antifungal MICc,Candida auris [10]; in combination with ZOL,1
same,MIC / MEC,Paraphyton cookei [11],0.5 µg/mL
same,antifungal MICc,Rhizopus oryzae; in combination with 10-ZOL,8
same,antifungal MICc,Rhizopus oryzae; in combination with ZOL,8
same,antifungal MICc,Lomentospora prolificans [12]; in combination with 10-ZOL,2
same,antifungal MICc,Lomentospora prolificans [12]; in combination with ZOL,16
same,MIC / MEC,Microsporum canis [13],0.03 µg/mL
same,antifungal MICc,Candida tropicalis [14]; in combination with 10-ZOL,0.032
same,antifungal MICc,Candida tropicalis [14]; in combination with ZOL,0.0625
same,MIC / MEC,Candida dubliniensis [15],0.06 µg/mL
same,antifungal MICc,Candida dubliniensis [16]; in combination with 10-ZOL,0.033
same,antifungal MICc,Candida dubliniensis [16]; in combination with ZOL,0.0125
same,antifungal MICc,Nannizzia gypsea; in combination with 10-ZOL,0.25
same,antifungal MICc,Nannizzia gypsea; in combination with ZOL,0.0625
same,MIC / MEC,Cryptococcus tetragattii [17],0.13 µg/mL
same,antifungal MICc,[18]; in combination with 10-ZOL,0.03
same,antifungal MICc,[18]; in combination with ZOL,0.125
same,antifungal MICc,Fusarium solani; in combination with 10-ZOL,0.5
same,antifungal MICc,Fusarium solani; in combination with ZOL,1
same,antifungal MICc,Aspergillus terreus; in combination with 10-ZOL,0.25
same,antifungal MICc,Aspergillus terreus; in combination with ZOL,0.125
same,MIC / MEC,Nannizzia nana [19],0.06 µg/mL
same,antifungal MICc,Aspergillus parafelis; in combination with 10-ZOL,2
same,antifungal MICc,Aspergillus parafelis; in combination with ZOL,2
same,antifungal MICc,Aspergillus felis [20]; in combination with 10-ZOL,0.5
same,antifungal MICc,Aspergillus felis [20]; in combination with ZOL,0.5
same,antifungal MICc,Paraphyton cookei [21]; in combination with ZOL,0.125
same,antifungal MICc,Cryptococcus tetragattii [22]; in combination with 10-ZOL,0.063
same,antifungal MICc,Cryptococcus tetragattii [22]; in combination with ZOL,0.125
same,MIC / MEC,Pichia kudriavzevii [23],0.5 µg/mL
same,antifungal MICc,Aspergillus udagawae [24]; in combination with 10-ZOL,0.03
same,antifungal MICc,Aspergillus udagawae [24]; in combination with ZOL,0.5

# From PMC12892976, “Alkylation-based optimization of antifungal FPPS inhibitors yields a potent, broad-spectrum lipophilic zoledronate derivative” (mBio, 2025)
